Results from ChEMBL document CHEMBL1141234, “Synthesis and SAR of highly potent dual 5-HT1A and 5-HT1B antagonists as potential antidepressant drugs” (Bioorg Med Chem Lett, 2005).
The source made the active and inactive calls. No cut-off for these calls is given here.

How the values were obtained:
[1] = biological target: T1, 5-hydroxytryptamine receptor 1B (Homo sapiens, UniProt P28222); test: Inhibitory activity against human recombinant 5HT1B receptor co-expressed with G-protein chimera Gqo5 in HEK293 cells by FLIPR; assay type: functional, cell-based
[2] = biological target: T2, 5-hydroxytryptamine receptor 1A (Rattus norvegicus, UniProt P19327); test: Binding affinity for rat 5HT1A receptor
T2 sequence (P19327 whole entry): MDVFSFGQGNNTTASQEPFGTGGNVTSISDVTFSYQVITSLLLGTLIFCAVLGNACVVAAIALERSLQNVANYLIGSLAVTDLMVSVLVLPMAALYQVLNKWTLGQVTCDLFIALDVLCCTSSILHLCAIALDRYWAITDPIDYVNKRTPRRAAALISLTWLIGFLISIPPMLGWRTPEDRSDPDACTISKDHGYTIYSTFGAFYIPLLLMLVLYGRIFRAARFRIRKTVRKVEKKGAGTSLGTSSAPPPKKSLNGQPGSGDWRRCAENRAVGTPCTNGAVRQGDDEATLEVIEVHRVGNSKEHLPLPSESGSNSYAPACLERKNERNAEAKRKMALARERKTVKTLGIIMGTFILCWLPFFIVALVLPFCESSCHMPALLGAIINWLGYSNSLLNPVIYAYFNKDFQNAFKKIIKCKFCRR

[3] = biological target: 5-hydroxytryptamine receptor 1B (Rattus norvegicus, UniProt P28564); test: Binding affinity for rat 5HT1B receptor
[4] = biological target: T1, 5-hydroxytryptamine receptor 1B; test: Intrinsic activity for 5HT1B receptor in FLIPR assay; assay type: functional
[5] = Oral bioavailability in rat at 10 mg/kg, po; assay type: ADME, organism-based; conditions: in vivo
[6] = Ratio of drug level in brain against plasma in rat; assay type: ADME, organism-based; conditions: read-out: BBR
Rattus norvegicus [7] = species: Rattus norvegicus; test: Electrically stimulated [3H]5-HT release from rat brain cortical slices at 0.1 uM; assay type: functional, tissue-based
[8] = biological target: 5-hydroxytryptamine receptor 2A (Homo sapiens, UniProt P28223); test: Inhibitory activity against 5HT2A receptor
[9] = biological target: T3, 5-hydroxytryptamine receptor 2C (Homo sapiens, UniProt P28335); test: Inhibitory activity against 5HT2C receptor
T3 sequence (P28335 whole entry): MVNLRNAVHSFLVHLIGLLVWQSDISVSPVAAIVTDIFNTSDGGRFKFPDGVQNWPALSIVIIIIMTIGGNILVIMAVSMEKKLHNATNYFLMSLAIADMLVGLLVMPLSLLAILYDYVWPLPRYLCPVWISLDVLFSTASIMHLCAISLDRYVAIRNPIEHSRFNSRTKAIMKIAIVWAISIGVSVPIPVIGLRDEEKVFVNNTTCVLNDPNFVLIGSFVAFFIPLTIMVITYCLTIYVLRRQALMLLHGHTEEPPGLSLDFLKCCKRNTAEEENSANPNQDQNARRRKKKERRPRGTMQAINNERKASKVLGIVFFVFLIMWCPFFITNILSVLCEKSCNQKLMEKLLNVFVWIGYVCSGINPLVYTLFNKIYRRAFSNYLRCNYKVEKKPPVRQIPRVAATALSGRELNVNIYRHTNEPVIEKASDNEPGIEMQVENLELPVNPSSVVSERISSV

[10] = biological target: 5-hydroxytryptamine receptor 7 (Homo sapiens, UniProt P34969); test: Inhibitory activity against 5HT7 receptor
D(3) dopamine receptor = D(3) dopamine receptor (Homo sapiens, UniProt P35462); test: Inhibitory activity against dopamine D3 receptor
Rattus norvegicus [11] = species: Rattus norvegicus; test: Electrically stimulated [3H]5-HT release from rat brain cortical slices at 1 uM; assay type: functional, tissue-based
Mus musculus = test: In vivo mouse forced swim test at 30 mg/kg, ip; assay type: functional, organism-based; set-up: dose 30 mg/kg
[12] = biological target: Sodium-dependent serotonin transporter (Homo sapiens) (UniProt P31645); test: Inhibitory activity against SERT upto 10 uM
[13] = biological target: T4, 5-hydroxytryptamine receptor 1A (Homo sapiens) (UniProt P08908); test: Functional activity in [35S]GTP-gamma-S assay for 5HT1A receptor; conditions: filed as antagonist
T4 sequence (whole entry): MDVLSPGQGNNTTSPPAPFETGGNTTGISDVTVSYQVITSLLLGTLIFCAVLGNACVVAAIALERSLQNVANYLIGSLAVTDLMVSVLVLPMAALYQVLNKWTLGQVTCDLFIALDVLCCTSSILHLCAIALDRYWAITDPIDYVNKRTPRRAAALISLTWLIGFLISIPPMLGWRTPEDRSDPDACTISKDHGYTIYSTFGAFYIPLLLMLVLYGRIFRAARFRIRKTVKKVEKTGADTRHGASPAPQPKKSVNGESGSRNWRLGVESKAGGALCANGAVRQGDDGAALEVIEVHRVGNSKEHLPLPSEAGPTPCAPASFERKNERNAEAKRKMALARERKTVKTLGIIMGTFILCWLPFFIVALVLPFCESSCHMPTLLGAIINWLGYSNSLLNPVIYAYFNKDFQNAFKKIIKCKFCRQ

[14] = biological target: T1, 5-hydroxytryptamine receptor 1B; test: Functional activity in FLIPR assay for 5HT1B receptor; conditions: filed as antagonist
[15] = biological target: Sodium-dependent noradrenaline transporter (Homo sapiens) (UniProt P23975); test: Inhibitory activity against NET upto 10 uM
Chain of Sodium-dependent noradrenaline transporter (Homo sapiens) (P23975 whole entry): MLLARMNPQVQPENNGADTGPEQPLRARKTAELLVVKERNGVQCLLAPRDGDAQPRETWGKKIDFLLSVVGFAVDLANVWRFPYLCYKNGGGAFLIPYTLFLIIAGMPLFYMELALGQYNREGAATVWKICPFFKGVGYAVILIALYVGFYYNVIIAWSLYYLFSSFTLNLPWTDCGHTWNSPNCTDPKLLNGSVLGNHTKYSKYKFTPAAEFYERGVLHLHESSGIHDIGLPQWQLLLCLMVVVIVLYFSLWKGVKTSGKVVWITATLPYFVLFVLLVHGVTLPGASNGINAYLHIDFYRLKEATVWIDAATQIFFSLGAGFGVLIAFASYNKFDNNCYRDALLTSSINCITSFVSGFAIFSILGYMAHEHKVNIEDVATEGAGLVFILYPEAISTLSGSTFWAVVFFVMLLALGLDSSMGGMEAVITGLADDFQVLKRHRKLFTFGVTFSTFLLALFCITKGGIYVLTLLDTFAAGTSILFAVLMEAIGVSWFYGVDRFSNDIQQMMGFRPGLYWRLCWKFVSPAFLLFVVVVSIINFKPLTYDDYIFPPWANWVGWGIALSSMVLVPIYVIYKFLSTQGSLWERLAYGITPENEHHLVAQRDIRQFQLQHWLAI

T1 sequence (P28222 whole entry): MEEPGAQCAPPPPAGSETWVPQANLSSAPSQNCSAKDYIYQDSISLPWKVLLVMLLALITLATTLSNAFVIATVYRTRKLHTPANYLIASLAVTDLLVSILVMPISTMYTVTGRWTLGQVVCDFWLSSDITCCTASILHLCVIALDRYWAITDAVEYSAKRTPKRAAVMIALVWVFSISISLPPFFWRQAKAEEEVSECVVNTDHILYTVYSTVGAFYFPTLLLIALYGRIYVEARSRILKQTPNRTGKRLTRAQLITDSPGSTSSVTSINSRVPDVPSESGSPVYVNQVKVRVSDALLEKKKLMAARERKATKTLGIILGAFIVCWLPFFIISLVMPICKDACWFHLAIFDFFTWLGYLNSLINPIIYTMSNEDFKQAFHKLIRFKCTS
Chain of 5-hydroxytryptamine receptor 1B (Rattus norvegicus, UniProt P28564) (P28564 whole entry): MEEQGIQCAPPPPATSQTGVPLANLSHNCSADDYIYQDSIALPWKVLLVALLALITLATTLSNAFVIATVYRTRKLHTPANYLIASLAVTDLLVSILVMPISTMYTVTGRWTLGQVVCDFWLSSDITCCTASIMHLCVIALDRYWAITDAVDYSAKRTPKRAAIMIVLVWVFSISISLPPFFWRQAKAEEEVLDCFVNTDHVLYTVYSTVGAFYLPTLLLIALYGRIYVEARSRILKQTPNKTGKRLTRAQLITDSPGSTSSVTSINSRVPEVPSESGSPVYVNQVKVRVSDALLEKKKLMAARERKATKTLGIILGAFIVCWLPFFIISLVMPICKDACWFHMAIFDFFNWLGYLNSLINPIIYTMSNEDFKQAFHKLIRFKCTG
Chain of 5-hydroxytryptamine receptor 7 (P34969 whole entry): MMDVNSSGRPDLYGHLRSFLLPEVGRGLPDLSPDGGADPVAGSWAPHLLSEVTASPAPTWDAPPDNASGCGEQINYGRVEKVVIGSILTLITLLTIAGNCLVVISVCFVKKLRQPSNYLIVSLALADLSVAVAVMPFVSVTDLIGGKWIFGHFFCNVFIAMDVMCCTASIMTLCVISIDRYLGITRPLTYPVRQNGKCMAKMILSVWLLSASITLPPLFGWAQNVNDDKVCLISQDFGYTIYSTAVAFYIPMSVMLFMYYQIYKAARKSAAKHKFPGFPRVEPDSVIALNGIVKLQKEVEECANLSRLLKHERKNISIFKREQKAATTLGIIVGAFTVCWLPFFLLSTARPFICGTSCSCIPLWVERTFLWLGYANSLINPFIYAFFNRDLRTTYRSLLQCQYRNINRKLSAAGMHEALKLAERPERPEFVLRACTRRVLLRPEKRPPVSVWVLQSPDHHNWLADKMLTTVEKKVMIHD
Chain of Sodium-dependent serotonin transporter (Homo sapiens) (P31645 whole entry, looked up): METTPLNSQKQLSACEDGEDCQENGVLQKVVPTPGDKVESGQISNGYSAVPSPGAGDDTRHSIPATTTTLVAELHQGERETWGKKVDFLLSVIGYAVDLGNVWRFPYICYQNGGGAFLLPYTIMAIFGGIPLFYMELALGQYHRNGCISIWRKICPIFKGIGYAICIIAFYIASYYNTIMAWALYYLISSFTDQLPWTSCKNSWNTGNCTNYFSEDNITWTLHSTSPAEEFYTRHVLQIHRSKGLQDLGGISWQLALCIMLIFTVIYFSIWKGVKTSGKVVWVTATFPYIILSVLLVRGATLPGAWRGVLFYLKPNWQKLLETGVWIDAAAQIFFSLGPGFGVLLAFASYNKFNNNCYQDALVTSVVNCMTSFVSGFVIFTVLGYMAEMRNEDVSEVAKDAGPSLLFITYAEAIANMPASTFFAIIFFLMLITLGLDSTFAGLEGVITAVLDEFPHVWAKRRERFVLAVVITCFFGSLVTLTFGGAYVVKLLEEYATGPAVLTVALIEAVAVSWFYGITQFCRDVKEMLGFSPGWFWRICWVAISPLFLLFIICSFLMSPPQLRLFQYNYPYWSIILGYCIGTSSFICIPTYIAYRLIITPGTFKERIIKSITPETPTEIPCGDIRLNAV
Chain of 5-hydroxytryptamine receptor 2A (P28223 whole entry): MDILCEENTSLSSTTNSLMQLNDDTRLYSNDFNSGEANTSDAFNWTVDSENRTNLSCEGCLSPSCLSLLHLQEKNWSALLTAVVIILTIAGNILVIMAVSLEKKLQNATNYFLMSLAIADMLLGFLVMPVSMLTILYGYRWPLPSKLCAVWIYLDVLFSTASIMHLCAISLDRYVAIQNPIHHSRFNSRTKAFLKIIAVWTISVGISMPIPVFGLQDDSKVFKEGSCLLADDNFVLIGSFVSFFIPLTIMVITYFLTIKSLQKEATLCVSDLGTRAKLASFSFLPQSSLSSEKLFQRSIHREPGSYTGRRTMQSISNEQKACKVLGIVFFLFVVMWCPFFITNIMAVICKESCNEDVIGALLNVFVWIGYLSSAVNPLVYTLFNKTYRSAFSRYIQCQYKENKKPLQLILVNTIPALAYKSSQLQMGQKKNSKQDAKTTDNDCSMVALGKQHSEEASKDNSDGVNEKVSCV
Chain of D(3) dopamine receptor (P35462 whole entry): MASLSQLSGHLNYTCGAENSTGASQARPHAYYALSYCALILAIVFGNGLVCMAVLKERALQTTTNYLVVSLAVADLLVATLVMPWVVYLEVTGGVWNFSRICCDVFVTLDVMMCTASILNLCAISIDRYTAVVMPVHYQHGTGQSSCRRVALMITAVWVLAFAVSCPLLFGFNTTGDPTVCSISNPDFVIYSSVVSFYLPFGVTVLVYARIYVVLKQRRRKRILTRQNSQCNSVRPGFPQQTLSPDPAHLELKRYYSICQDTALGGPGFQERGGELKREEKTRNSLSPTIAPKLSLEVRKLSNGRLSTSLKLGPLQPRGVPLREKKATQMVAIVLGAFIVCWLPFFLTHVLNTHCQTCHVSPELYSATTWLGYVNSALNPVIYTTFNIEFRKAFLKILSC

Compound: CN1CCc2c(sc3ncn(CCN4CCN(c5cncc6ccccc56)CC4)c(=O)c23)C1
- IC50 [1]: 35 nM
- Ki [1]: 2.5 nM
- Ki [2]: 16.3 nM
- Ki [3]: 33.1 nM
- Emax [4]: 7%
- bioavailability [5]: 11%
- Kp [6]: 10.2
- Activity (Rattus norvegicus [7]): Dose-dependent effect
- Ki [8]: 180 nM
- Ki [9]: > 10000 nM
- Ki [10]: 520 nM
- Ki (D(3) dopamine receptor): 1.18 nM
- Activity (Rattus norvegicus [11]): Dose-dependent effect
- Activity (Mus musculus): inactive
- Activity [12]: inactive
- Activity [13]: Antagonist
- Activity [14]: Antagonist
- Activity [15]: inactive
